Experimental data reported in US20150327444A1, “PROCESS FOR THE OVERPRODUCTION OF SHIKIMIC ACID AND PHENOLIC ACIDS IN FRUIT AND VEGETABLE CROPS” (Instituto Tecnologico y de Estudios Superiores de Monterry, priority 2013, published 2015).

Legend:
carrots (Daucus carota) [1] = assay: Effect of grinding on SA and PC in wounding-stressed, glyphosate-sprayed carrot tissue (Example 8)
Description: (§1) The plant material used in this example comprised carrots (Daucus carota) obtained from a local supermarket (Monterrey, N. L., Mexico), which were washed and disinfected with chlorinated water in a concentration of 200 ppm, pH 6.5, in a ratio of 1:3 kg of plant material:liters of chlorinated water, for 10 min.
(§2) This stage was carried out by grating the carrot with a commercial vegetable grater. Stressed grated carrots having a diameter of 0.7 cm were obtained.
(§3) In this stage, the stressed grated plant tissue was treated by spraying (commercial sprayer) 100 mL of a concentrated solution of glyphosate (482 g/L).
The treated grated material was incubated at 25° C. […] at atmospheric pressure with a relative humidity of 65%, in total darkness, to determine the combined effect of wounding stress and glyphosate application on the accumulation of SA and PC.

carrots (Daucus carota) [2] = assay: Overproduction of SA and PC by wounding stress and sprayed glyphosate 482 g/L in carrot tissue (Example 6)
Description: as §1, §2, §3
Finally, the treated grated material was incubated at 25° C. for 24 hours at atmospheric pressure with a relative humidity of 65%, in total darkness, to determine the combined effect of wounding stress and glyphosate application on the accumulation of SA and PC.

carrots (Daucus carota) [3] = assay: Effect of drying on SA and PC in wounding-stressed, glyphosate-sprayed carrot tissue (Example 7); settings: for Increase in concentration in dehydrated glyphosated grated material stored for 24 hours: vs grated carrot prior to storage (0 hours)
Description: as §1, with “min. This stage was carried out by grating the carrot with a commercial vegetable grater.” for “min.”

carrots (Daucus carota) [4] = assay: Effect of method of application (submergence or spraying) of glyphosate solution on SA accumulation in grated carrot (Example 4); settings: glyphosate 482 g/L, 24 hours at 25° C.
Excerpt: This difference is attributed to the removal of signal molecules which induce the response to the wounding as part of the submergence process. The (at least partial) removal of extracellular adenosine triphosphate (eATP, produced by the wounding stress effect) occurs in the submerged material, and this may be related to lesser generation of reactive oxygen species (ROS), thus reducing the yield of SA in comparison with application by spraying. Abiotic wounding stress activates the metabolic pathways involved in the production of phenolic compounds while the application of glyphosate makes it possible to block the flow of SA to the production of other compounds, thus bringing about an accumulation of SA in the horticultural crop. Thus the wounded carrots have been treated with a solution of glyphosate (0-482 g/L) using one of the two different methods of application (submergence and spraying), the spraying method being preferred because of its better yields, and stored for 24 hours to determine the combined effect of wounding stress and glyphosate application on the accumulation of SA and PC. In the first (submerged) method of application the grated material was submerged in a ratio of 1:2 to 1:4 (kg of plant material:liters of glyphosate solution), in such a way that said material was wholly submerged in the glyphosate solution. […]

carrots (Daucus carota) [5] = assay: Effect of grinding on accumulation of SA in wounding-stressed grated carrot (Example 3); settings: vs grated carrot prior to storage (0 hours)
Description: as §1
(§4) This stage was carried out by grating the carrot with a commercial vegetable grater. Stressed grated carrots having a diameter of 0.7 cm were obtained. […]
(§5) The SA extracts were analyzed following a method reported by Zelaya, I. A., Anderson, J. A., Owen, M. D. and Landes, R. D. Evaluation of spectrophotometric and HPLC methods for shikimic acid determination in plants: models in glyphosate-resistant and susceptible crops. […] The SA oxidized through the effect of the reaction was detected at 382 nm using a microplates reader (Synergy HT, Bio-Tek Instruments Inc., Winooski, Vt., USA). A standard curve for SA was constructed (1-1000 μM) to quantify the compound. The SA concentration was expressed as mg per kg of carrots in dry base (DB). The moisture content in the samples was determined by the method of drying in a stove (AACC 44-15A).

carrots (Daucus carota) [6] = assay: Effect of drying on accumulation of SA in wounding-stressed grated carrot (Example 2); settings: vs grated carrot prior to storage (0 hours)
Description: as §1, §4, §5

carrots (Daucus carota) [7] = assay: Effect of wounding stress on accumulation of SA in grated carrot during storage (Example 1); settings: vs grated carrot prior to storage (0 hours); 25° C., no glyphosate
Description: as §1
Stage a) The previously washed and disinfected carrots were subjected to post-harvest abiotic stress.
as §2
Stage b) Incubation of the grated carrot stressed in a) to encourage the production and accumulation of SA and PC. […]
The SA was extracted from the horticultural crop using two different processes based on the method of detection and quantification which was to be used (spectrophotometry or chromatography). […]
as §5, with “The SA concentration was expressed as mg per kg of carrots in dry base (DB). The moisture content in the samples was determined by the method of drying in a stove (AACC 44-15A).” left out

carrots (Daucus carota) [8] = assay: HPLC-PDA quantification of SA and individual phenolic compounds in grated carrot sprayed with glyphosate at different concentrations (Example 5); settings: after 24 hours' storage; estimated from HPLC-PDA
[9] = vs grated carrot before storage (0 hours)
[10] = sprayed 482 g/L glyphosate, vs control samples (0 hours)

Row | Compound | Increase in content in the 482 g/L glyphosate treatment (carrots (Daucus carota) [1]; vs control samples at 24 hours) [%] | Increase in concentration in dehydrated glyphosated grated material stored for 24 hours (carrots (Daucus carota) [1]; [9]) [%] | Increase in concentration on spraying a concentrated solution of glyphosate onto carrot tissue stressed by wounding (carrots (Daucus carota) [2]) | Increase in content in the 482 g/L glyphosate treatment (carrots (Daucus carota) [2]; vs control samples at 24 hours) [%] | Increase in content in the 482 g/L glyphosate treatment (carrots (Daucus carota) [3]; vs control samples at 24 hours) [%] | Increase in concentration in dehydrated glyphosated grated material stored for 24 hours (carrots (Daucus carota) [3]) [%] | Increase in accumulation, grated carrot sprayed with glyphosate vs submerged samples (carrots (Daucus carota) [4]) | Increase in concentration in nutraceutical powder stored for 24 hours (carrots (Daucus carota) [5]; after drying and grinding) [%] | Increase in concentration in grated carrot stored for 24 hours (carrots (Daucus carota) [5]; no glyphosate) [%] | Increase in concentration after 24 hours of storage (carrots (Daucus carota) [1]; [10]) [%] | Increase in concentration in glyphosated powder stored for 24 hours (carrots (Daucus carota) [1]; [9]) [%] | Increase in concentration after 24 hours of storage (carrots (Daucus carota) [2]; [10]) [%] | Increase in concentration after 24 hours' storage (carrots (Daucus carota) [3]; [10]) [%] | Increase in concentration in dehydrated nutraceutical grated material stored for 24 hours (carrots (Daucus carota) [6]; after drying) [%] | Increase in concentration in grated carrot stored for 24 hours (carrots (Daucus carota) [6]; no glyphosate) [%] | Increase in concentration in grated carrot stored for 24 hours (carrots (Daucus carota) [7]) [%] | Increase in concentration in grated carrot not sprayed with glyphosate (carrots (Daucus carota) [8]) [%]
1 | O=C(/C=C/c1ccc(O)c(O)c1)O[C@@H]1C[C@](O)(C(=O)O)C[C@@H](O)[C@H]1O (single isomer, unassigned) [CA, chlorogenic acid] | ~1940 | ~11620 | > 5000% | ~1980 | ~1930 | ~1700 | – | – | – | – | – | – | – | – | – | – | –
2 | O=C(O)C1=C[C@@H](O)[C@@H](O)[C@H](O)C1 (single isomer, unassigned) [SA, shikimic acid] | – | – | more than 1000% | – | – | ~1550 | ~44% and ≈ 44% | ~37 | ~48 | ~1720 | ~1470 | ~1735 | ~1766 | ~40 | ~45 | ~50 | ~77
